ChEMBL document CHEMBL1201862, “PubChem BioAssay data set” (2004)
Activity calls are given as the source filed them.

Columns and labels:
[1] = loss of viability in HepG2 cells – cell-based, CellTiter-Glo, cherry-picked, cytotoxicity control for Shn3 inhibitor project, dose response (AID 624134); type: functional
[2] = Fluorescence-based cell-based high throughput dose response assay for inhibitors of the interaction of nucleotide-binding oligomerization domain containing 2 (NOD2) and the receptor-interacting serine-threonine kinase 2 (RIPK2).; type: functional; details: Homo sapiens
[3] = reduction of Shn3 3'UTR-driven luciferase in osteoblasts – cell-based, Clone20 osteoblasts, firefly luciferase, cherry-picked, dose response (AID 624132); type: functional;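 also: firefly luciferase luminescence from reporter carrying the Shn3 3'UTR in osteoblasts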
[4] = target: Photoreceptor-specific nuclear receptor (Homo sapiens, UniProt Q9Y5X4); type: functional, cell-based;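 also: CHO-S cells with Gal4-NCOR and VP16-NR2E3 two-hybrid luciferase reporter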
Chain of Photoreceptor-specific nuclear receptor (Q9Y5X4 whole entry, the tested form may be a part): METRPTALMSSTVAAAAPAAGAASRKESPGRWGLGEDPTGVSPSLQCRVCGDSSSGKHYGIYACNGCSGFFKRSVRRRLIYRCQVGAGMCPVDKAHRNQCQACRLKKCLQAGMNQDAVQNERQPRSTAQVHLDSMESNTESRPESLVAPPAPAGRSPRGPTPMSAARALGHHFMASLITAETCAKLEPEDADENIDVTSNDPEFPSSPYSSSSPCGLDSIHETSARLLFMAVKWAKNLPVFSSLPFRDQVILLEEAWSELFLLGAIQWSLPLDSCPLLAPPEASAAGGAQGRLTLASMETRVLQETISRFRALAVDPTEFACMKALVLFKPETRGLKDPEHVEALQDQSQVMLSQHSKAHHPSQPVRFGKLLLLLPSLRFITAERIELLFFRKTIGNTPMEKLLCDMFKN

[5] = non-specific 3'UTR reporter inhibition in Clone20-Shn3RL – cell-based, Renilla luciferase, cherry-picked, counter-screen for Shn3 inhibitor project, dose response (AID 624133); type: functional
Steroidogenic factor 1 = Steroidogenic factor 1 (Homo sapiens, UniProt Q13285); assay: Counterscreen for inverse agonists of the liver receptor homolog-1 (LRH-1; NR5A2): Luminescence-based cell-based high throughput dose response assay to identify inverse agonists of the Steroidogenic Factor 1 Nuclear Receptor (SF1; NR5A1).; type: functional
Chain of Steroidogenic factor 1 (Q13285 whole entry): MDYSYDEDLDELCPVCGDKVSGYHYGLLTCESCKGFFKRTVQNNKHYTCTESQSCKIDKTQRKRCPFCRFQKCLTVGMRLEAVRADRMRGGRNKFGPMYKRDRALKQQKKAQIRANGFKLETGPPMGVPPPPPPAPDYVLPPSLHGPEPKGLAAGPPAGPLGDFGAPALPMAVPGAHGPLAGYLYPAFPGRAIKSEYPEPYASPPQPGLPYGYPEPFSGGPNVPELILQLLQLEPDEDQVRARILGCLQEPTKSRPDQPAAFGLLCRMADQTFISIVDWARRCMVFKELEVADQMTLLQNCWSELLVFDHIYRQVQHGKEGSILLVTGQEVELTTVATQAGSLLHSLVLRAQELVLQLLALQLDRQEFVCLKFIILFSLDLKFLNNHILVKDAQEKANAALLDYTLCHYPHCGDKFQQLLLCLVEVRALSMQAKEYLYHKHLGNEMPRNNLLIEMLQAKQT

[6] = nonselective StAR promoter luciferase inhibitors – cell-based, luminescence, luciferase reporter, counter-screen for LRH-1 inverse agonist project, dose response (AID 651969); type: functional
[7] = target: Nuclear receptor subfamily 5 group A member 2 (Homo sapiens, UniProt O00482); type: functional, cell-based;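 also: HEK293T cells transfected with LRH-1 and a StAR promoter luciferase reporter; potency for inhibitors that lower LRH-1 driven reporter light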
Chain of Nuclear receptor subfamily 5 group A member 2 (O00482 whole entry): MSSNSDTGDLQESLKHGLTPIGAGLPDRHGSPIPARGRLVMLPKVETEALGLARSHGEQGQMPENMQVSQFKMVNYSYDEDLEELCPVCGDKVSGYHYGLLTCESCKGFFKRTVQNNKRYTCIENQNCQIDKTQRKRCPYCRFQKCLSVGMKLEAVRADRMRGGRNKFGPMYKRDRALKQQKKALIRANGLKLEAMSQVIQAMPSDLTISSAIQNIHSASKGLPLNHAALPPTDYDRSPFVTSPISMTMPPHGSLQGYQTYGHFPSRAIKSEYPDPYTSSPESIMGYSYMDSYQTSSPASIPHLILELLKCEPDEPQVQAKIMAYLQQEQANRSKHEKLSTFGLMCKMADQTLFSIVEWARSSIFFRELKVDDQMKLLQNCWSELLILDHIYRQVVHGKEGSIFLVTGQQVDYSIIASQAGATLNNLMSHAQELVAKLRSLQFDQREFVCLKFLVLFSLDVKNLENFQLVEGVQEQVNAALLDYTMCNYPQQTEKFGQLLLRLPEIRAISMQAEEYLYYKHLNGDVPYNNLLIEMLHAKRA

[8] = target: T1, Apoptotic protease-activating factor 1 (Homo sapiens, UniProt O14727); assay: SAR analysis of small molecule Activators of Apaf-1 in a Fluorescent assay.; type: functional; details: read-out: EC50_Mean;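 also: caspase-3 cleavage of fluorogenic Rh110 DEVD substrate downstream of apoptosome activation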
T1 sequence (O14727 whole entry): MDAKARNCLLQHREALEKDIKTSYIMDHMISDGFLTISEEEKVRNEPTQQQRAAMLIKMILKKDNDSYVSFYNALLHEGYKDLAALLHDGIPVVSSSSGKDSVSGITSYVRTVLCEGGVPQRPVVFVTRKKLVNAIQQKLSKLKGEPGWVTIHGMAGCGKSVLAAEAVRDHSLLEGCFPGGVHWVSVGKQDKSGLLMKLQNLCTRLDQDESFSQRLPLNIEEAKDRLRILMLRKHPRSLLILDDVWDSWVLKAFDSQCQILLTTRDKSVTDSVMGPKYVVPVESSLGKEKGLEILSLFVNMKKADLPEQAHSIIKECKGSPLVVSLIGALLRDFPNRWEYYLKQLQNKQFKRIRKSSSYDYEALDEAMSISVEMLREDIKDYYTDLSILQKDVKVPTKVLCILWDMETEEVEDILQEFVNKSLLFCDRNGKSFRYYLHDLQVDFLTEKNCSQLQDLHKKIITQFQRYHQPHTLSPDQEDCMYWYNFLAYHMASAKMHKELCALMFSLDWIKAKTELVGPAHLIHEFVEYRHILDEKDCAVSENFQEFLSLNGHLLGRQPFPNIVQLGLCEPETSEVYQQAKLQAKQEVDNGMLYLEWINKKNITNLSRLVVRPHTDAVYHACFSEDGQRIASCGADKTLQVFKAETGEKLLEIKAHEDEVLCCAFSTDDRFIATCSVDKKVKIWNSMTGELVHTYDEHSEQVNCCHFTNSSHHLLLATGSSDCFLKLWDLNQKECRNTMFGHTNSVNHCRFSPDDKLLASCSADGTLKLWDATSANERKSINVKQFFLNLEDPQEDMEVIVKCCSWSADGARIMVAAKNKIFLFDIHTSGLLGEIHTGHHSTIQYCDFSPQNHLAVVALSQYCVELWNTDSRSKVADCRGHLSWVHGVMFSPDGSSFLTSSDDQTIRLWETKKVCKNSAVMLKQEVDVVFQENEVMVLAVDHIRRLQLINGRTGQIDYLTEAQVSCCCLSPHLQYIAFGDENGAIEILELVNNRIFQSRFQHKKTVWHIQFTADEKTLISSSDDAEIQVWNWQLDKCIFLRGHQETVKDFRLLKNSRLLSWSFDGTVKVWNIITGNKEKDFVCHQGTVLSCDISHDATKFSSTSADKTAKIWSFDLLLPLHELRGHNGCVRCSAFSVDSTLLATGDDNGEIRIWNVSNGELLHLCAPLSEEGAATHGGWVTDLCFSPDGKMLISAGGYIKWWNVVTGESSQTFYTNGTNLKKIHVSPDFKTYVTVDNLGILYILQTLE

[9] = target: T2, Low molecular weight phosphotyrosine protein phosphatase (Homo sapiens, UniProt P24666); type: functional; details: read-out: IC50_Mean
T2 sequence (P24666 whole entry): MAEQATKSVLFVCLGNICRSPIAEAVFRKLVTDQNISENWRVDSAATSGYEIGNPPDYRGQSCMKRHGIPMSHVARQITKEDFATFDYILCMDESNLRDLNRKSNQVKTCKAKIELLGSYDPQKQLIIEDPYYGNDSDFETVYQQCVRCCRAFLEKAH

[10] = target: T2, Low molecular weight phosphotyrosine protein phosphatase; type: functional; details: read-out: IC50_Mean; remark: listed apart in the source

| EC50 [8] | Compound | IC50 (Steroidogenic factor 1) | IC50 [6] | IC50 [7] | also measured |
| --- | --- | --- | --- | --- | --- |
| – | CC(C)(C)NCC(=Cc1ccccc1)C(=O)c1ccccc1 | – | – | – | AC50 [1]: 11.1 µM (active); IC50 [2]: 10.4 µM (inactive); AC50 [3]: 4.51 µM (active); IC50 [4]: 2.91 µM (active); AC50 [5]: 6.44 µM (active) |
| – | Cc1cc(=O)oc2c(C)c(OCC(=O)NC3CC(C)(C)NC(C)(C)C3)ccc12 | 35.9 µM (inactive) | 35.9 µM (inactive) | 35.9 µM (inactive) | – |
| > 100 µM (inactive) | CN1c2ccccc2C(C)(C)C12CC(c1ccc(F)cc1)=NO2 (stereo not given) | – | – | – | – |
| – | C/C(=N\Nc1cc(C(F)(F)F)ccc1Cl)c1ccncc1 | 12 µM (inactive) | 35.9 µM (inactive) | 26.2 µM (inactive) | – |
| – | O=C(N/N=C/c1ccc(OC(=O)c2cccc(F)c2)cc1)c1cccnc1 | – | – | – | IC50 [9]: 14.4 µM (active); IC50 [10]: 15.4 µM (active) |
| > 100 µM (inactive) | N[C@@H](CCc1ccccc1)C(=O)O [HOMOPHENYLALANINE] | – | – | – | – |
